Columns and labels:
[1] = in vivo; cited from earlier work
[2] = test system: diabetic patients; conditions: nearly 1 g of magnesium daily for 1 month; cited from earlier work
[3] = test system: young (9-month old) and aged (25-month old) rats; conditions: food containing 2% magnesium oxide for 8 days; gain transient; cited from earlier work
[4] = test system: mice genetically altered to present symptoms of Alzheimer's disease (AD); experiment: Modified Morris water maze test in AD mice; type: in vivo; conditions: AD mice aged 13 months; FIG. 16 panels A and B
Description: Another group, the control group, of 10 mice that were genetically altered to present symptoms of AD were fed a Control Diet, a diet of normal solid food and water, for 30 days.
The pool used was a pool of water in a circular metal tank (150 cm in diameter and 50 cm in depth) having a water height of 30 cm and a water temperature that was maintained at ˜22° C. The pool was placed in a moderately lit area and surrounded by a black curtain. An acrylic platform (15 cm in diameter) was placed 2 cm below the surface of the water in the middle of one quadrant of the pool, equidistant from the center and the edge of the pool. Outside the pool, a cue was placed so as to be visible to a mouse in the maze, allowing a mouse to use it as a landmark for spatial orientation. The cue remained unchanged throughout the test period.
On the first day of the training and testing period, the water in the pool was transparent, such that the platform was visible. Each mouse was trained to swim towards the platform and to stand on the platform so as not to be submerged in the pool. […] The amount of time the mouse took to find the platform, referred to as “escape latency,” was recorded for each trial.
On the second day of the training and testing period, a small quantity of milk was added to the water in the pool, such that the pool was opaque and the platform was no longer visible. […]

[5] = Magnesium absorption rate in rats (urine and feces magnesium by ICP-AES, linear regression); conditions: Examples 5 and 6, gluconate in skim milk or 5 weight percent lactose water, chloride and threonate in water; for magnesium absorption rate at higher dosage: high magnesium dosage
Description: Fifty 3-month old, male Sprague Dawley (SD) rats were divided into five groups of ten rats. Rats of this age and older are considered adult. Each of the rats was placed in a separate metabolic cage equipped with urine- and feces-collecting wells. All of the rats were maintained in a temperature-controlled room (22° C. to 25° C.) with a dark period from 08:00 pm to 08:00 am daily. From day 1 through day 3, each rat was fed daily 15 g of magnesium-free food and de-ionized water. […] The medium was skim milk for Composition 1 and Group 1, milk prepared from powdered milk, by diluting the powdered milk with water to obtain a composition like that of skim milk, for Composition 2 and Group 2, 1% milk cream in water for Composition 3 and Group 3, water comprising 5 weight percent lactose for Composition 4 and Group 4, and water for the Control Composition and Control Group. […] From day 11 through day 12, each rat was fed daily 15 g of magnesium-free food and de-ionized water.
From day 4 through day 10, urine from each rat was collected daily. The collected urine from each rat was then pooled together and the total volume of the pooled urine from each rat was recorded. The pooled urine from each rat, in an amount of […], was analyzed for magnesium content using an inductively coupled plasma-atomic emission spectrometer (ICP-AES). From day 5 to day 11, feces from each rat were collected daily. The collected feces from each rat were pooled together and the pooled feces were weighed and homogenized. The pooled feces from each rat, in an amount of 0.5 g, were analyzed for magnesium content using an ICP-AES.
A formula was used to calculate a magnesium absorption rate for each rat. The formula used was Y=AX−B, wherein X was the average total daily magnesium intake, Y was the average net daily amount of magnesium absorbed, as calculated by X minus the average daily amount of magnesium excreted from feces, B was the average daily amount of magnesium excreted from feces when the magnesium intake was zero, and the slope A represented the magnesium absorption rate. […]

[6] = test system: rats (young, aging); experiment: Novel object recognition test in rats; type: in vivo, Sprague-Dawley rats
Description: In this example, the effect of magnesium supplementation on recognition memory was tested. Three groups of rats were used in these experiments: 1) young rats (three months old); aging rats (12-14 months old), and; 3) magnesium-treated aging rats (12-14 months old, diet supplemented with 6 mg/kg MgCl2 from 8 months of age). We used experimentally naive, female, Sprague-Dawley young […], aging (12-14 month old) and […] rats (Charles River) at the beginning of the behavior experiments. They were housed two per cage with continuous access to food and water under a 12:12 light-dark cycle, with light onset at 8:00 a.m. […] All experiments involving animals were approved by the Massachusetts Institute of Technology's and Tsinghua University Committees on Animal Care.
The three groups of rats were tested for recognition memory using an object recognition test with a single exposure to the object during training. The task is based on the natural tendency of rodents to explore new objects and tests the animals' memory capacity for distinguishing novel versus familiar objects.
Briefly, the rats were first individually habituated to the personnel and then to open-field arena during 2 weeks. […] The retention intervals were 10 min and 24 hours. Objects were cleaned thoroughly between trials with 20% ethanol solution to ensure the absence of olfactory cues. The particular objects for a given trial were randomly determined, but each object was used for only one trial per rat. Memory of the familiar object is associated with increased exploration of the new object and an exploration index (% correct) is calculated as new object inspection time/30.
In this example, the effect of magnesium supplementation on memory consolidation was studied. […]
Briefly, the rats were first individually habituated to the personnel and then to open-field arena during 2 weeks. […] The particular objects for a given trial were randomly determined, but each object was used for only one trial per rat. […]

[7] = test system: rats (young, aging, aged); conditions: p<0.05
Description: Twenty 2-month old, male Sprague Dawley (SD) rats were housed in a temperature-controlled room (22° C. to 25° C.) with a dark period from 08:00 pm to 08:00 am daily. […] Over 7 days before the training and trial period began, each rat was handled and habituated to the maze and to Kellogg's Froot Loop cereal.
Each rat underwent a test of one trial, followed by an interval of 10-minutes, followed by another trial, and so on, for a total of 6 trials in one day. In each trial, each rat went through a sample run in the maze, followed by an interval of 15 seconds, followed by a choice run in the maze. […]
On the first day (designated day 0) of the feeding of the two groups, as just described, each rat underwent a preliminary test of one trial, followed by an interval of 10 minutes, followed by another trial, and so on, for a total of 4 trials in one day. […] In this preliminary test, the choice accuracy level, or ratio of correct choices made, co, to the number of number of trials in the test, no, was determined for each rat. […]
Three groups of animals (young, aging, and magnesium-treated aging rats) were used. […] Spatial working memory was assessed using a T-maze non-matching-to-place task. […] Spatial working memory was first assessed on an elevated T-maze. […]

[O]=[Mg] [magnesium oxide]
magnesium bioavailability, or absorption rate in the human body [1]: very low | metabolic control [2]: only minor improvement | cognitive function [3]: some sign of improvement

CC12CC3CC(C)(C1)CC(N)(C3)C2 [memantine]
reduction of the effects of AD on learning capacity, comparison of anti-AD drugs [4]: better at reducing the effects of AD on learning capacity than aricept

magnesium gluconate
magnesium absorption rate at higher dosage [5]: suitably close to those associated with the lower dosage compositions

[Cl-].[Cl-].[Mg+2] [magnesium chloride]
magnesium absorption rate at higher dosage [5]: less desirable | magnesium absorption rate at relatively low dosage ([5]; low magnesium dosage): suitable, but lower | novel object exploration preference, 10 minute retention interval ([6]; aging rats (12-14 months old), diet supplemented with 6 mg/kg MgCl2 from 8 months of age, single training, FIG. 8, P<0.0001): preferentially explored the novel object to the same extent as young rats | novel object discrimination after 24 hours ([6]; aging rats, 6 mg/kg MgCl2, single training): lose there ability to distinguish novel versus familiar objects | preference for the novel object, 24-hour retention interval after spaced training ([6]; aging rats, 6 mg/kg MgCl2, two training sessions, FIG. 9): retained a high level of preference | learning in T-maze non-matching-to-place task, 15 sec delay ([7]; 6 mg/kg MgCl2, FIG. 10 left panel): performed significantly better from their first trials | spatial working memory at 2 and 5 min delays ([7]; 6 mg/kg MgCl2, FIG. 10 right panel): significantly enhanced the performance of the aging rats

— patent publication US8470352B2, “Magnesium compositions and uses thereof for metabolic disorders” (Magceutics, Inc., priority 2007, dated 2013)
